Experimental data: patent US8575217B2, “Anti-inflammatory and antioxidant conjugates useful for treating metabolic disorders” (Genmedica Therapeutics SL, priority 2009, dated 2013)
Each block holds one compound with its values, some of them ahead of it.

How the values were obtained:
[1] = Chemical stability of conjugates in neutral, acidic and basic solutions; format: physicochemical
Protocol: Exemplary expérimental results showing the efficacy of certain embodiments of the combinations of the invention are set forth in the drawings. Stability studies were performed on thioester conjugates of N-acetylcysteine and salicylate, diflunisal or dexibuprofen, at neutral (pH 7), acidic, or basic (9) pH in phosphate-buffered saline (PBS). […] Diflunisal-NAC conjugates were tested for 3 or 24 hours under the same neutral, acidic and basic conditions, at room température or 4° C., and in PBS or mixture of water and méthanol.

[2] = Cleavage by rat liver microsomes; format: in vitro ADME; conditions: 1 hour incubation; for cleavage of conjugate, rat versus human microsomes: free salicylate or diflunisal assayed
Protocol: (§1) In vitro cleavage experiments were performed substantiallas described in Singh et al., 1996, In vitro metabolism of a potent HIV-protease inhibitor (141W94) using rat, monkey and human liver S9, Rapid Commun. Mass Spectrom. 10: 1019-1026. Briefly, conjugate compounds of the invention were incubated at a final concentration of 1 microM for 1 hour in the presence of human or rat liver microsome S9 (obtained from Xenotech). At the end of incubation at each of the time points reported, an equal volume of an organic mixture (acetonitrile/methanol, 50/50, v/v) was added to the incubation mixture followed by centrifugation. At this time blank microsomal extract was spiked with metabolites to create calibration standards for each metabolite at the following concentrations: 0 (blank), 0.05, 0.1, 0.5 and 1 microM. All samples were analyzed by HPLC-MS/MS and the peak areas corresponding to the expected metabolites (generally, antioxidant and anti-inflammatory cleaysasge products) were determined by HPLC-MS/MS. The amount of each metabolite present in the 60 minute incubation samples was determined from the corresponding calibration curve.
The capacity for conjugates of the invention to be cleaved was tested in vitro using rat or human liver microsomes. […] Similar experiments were performed in plasma from rat or human for salicylate-NAC or diflunisal-NAC conjugates; thèse results are shown in FIGS. 3 and 4, respectively.

[3] = tested on: alloxan-treated cd-1 mice; assay: In vivo beta cell protection model (alloxan); conditions: for plasma insulin levels: lysine salt, alloxan-treated (FIG. 6)
Protocol: Beta-cell destruction was induced in cd-1 mice after 3 hours of fasting by a single intraperitoneal injection of a freshly prepared solution of alloxan 200 mg/kg (Sigma-Aldrich, San Luis, Mo.) that was dissolved in NaCl 0.9%. Single intraperitoneal drug administration was 1 hour before the alloxan administration. Animals received the different drugs dissolved in PBS pH 7.4, and the animals that not received any drug were injected with the vehicle, in this case PBS pH 7.4. At the end of the treatment, at day 4, animals were killed and the plasma collected and kept at −20° C. until used.
(§2) The circulating glucose concentration was determined by a rapid glucose analyzer (Accu-Chek Aviva; Roche). Plasma triglycerides and non esterified fatty acids were determined with standard colorimetric methods (Biosystems, Barcelona, Spain, and Wako Chemicals, Neuss, Germany, respectively). Plasma insulin concentration was determined by enzyme-linked immunosorbent assay method (CrystalChem, Downers Grove, Ill.). Total pancreas insulin content has been determined after extraction of insulin with a mixture Ethanol (70%)/HCl (0.15 N) from pancreas homogenates.

[4] = tested on: db/db mice; assay: Chronic treatment in db/db mice; format: in vivo
[5] = tested on: db/db mice; assay: Intraperitoneal glucose tolerance test in db/db mice; format: in vivo; conditions: salicylate-NAC 1.5, diflunisal-NAC 0.5 mmol/kg/day as lysine salt; glucose 0.5 g/kg ip, 120 minute timecourse
Protocol: At the fourth week of treatment, a Glucose Tolerance Test was done to the mice after an overnight fasting. The animals received an ip injection of Glucose 0.5 g/kg (Glucosmon 50®). The glycemia levels were determined in blood at the indicated time from the Tail Vein after the Glucose injection using a rapid glucose analyzer.

[6] = Cleavage by human liver microsomes; format: in vitro ADME; conditions: 1 hour incubation; diflunisal-NAC compared with salicylate-NAC
Protocol: as §1
The capacity for conjugates of the invention to be cleaved was tested in vitro using rat or human liver microsomes. […]

[7] = tested on: db/db mice; assay: Pancreas insulin content and immunohistochemical analysis of pancreas sections in db/db mice; format: in vivo; conditions: chronic oral, four weeks, 0.5 mmol/kg/day (FIG. 24)
Protocol: as §2
The pancreas was removed from each mouse and fixed overnight in a solution of 4% formalin. Fixed tissues were processed routinely for paraffin embedding, and 6-μm sections were prepared and mounted on slides treated with xilane. For detection of insulin, the avidin-biotin complex (ABC) method was performed using Vectastain ABC Kit (Vector Laboratories). Deparaffinized and […] sections were microwaved in citrate buffer (pH 6.0) for antigen retrieval, then were incubated in Tris 100 mM pH 7.4 containing 3% BSA, and 0.01% Triton, to permeabilize and block nonspecific staining, for 30 min, and after that, were incubated with the guinea pig polyclonal anti-insulin antibody (Dako), diluted 1/500 in blocking solution for 2 hours. Negative controls were incubated with blocking solution without the primary antibody. […]

[8] = Diflunisal and NAC blood levels after oral administration of conjugate versus separate components; format: in vivo, rats; conditions: 7-hour timecourse (FIG. 16)
Protocol: A comparison of diflunisal and NAC levels in blood after oral administration was performed in rats by administration of the diflunisal-NAC conjugate (GMC-252) or the individual components separately (i.e., not chemically conjugated). Conjugate (20 mg/kg) or the equivalent amount of difliunisal and NAC were administered and blood assayed over a 7-hour timecourse.

[9] = tested on: control animals; assay: Preliminary experiment with control animals (oral diflunisal-NAC); format: in vivo; conditions: oral 0.5 mmol/kg
[10] = tested on: human diabetic patients; conditions: 4.5 g/day; cited from earlier work
[11] = 0.75 mmol/kg/day as lysine salt, ip, compared with separate administration of salicylate or NAC (FIG. 7)

stability of free acid in water/methanol mixture ([1]; free acid, water/methanol, 3 and 24 hours (diflunisal-NAC: neutral pH, room temperature)): stable for 3- and 24-hour incubation
stability of lysine salt at neutral pH ([1]; lysine salt, neutral pH, room temperature or 4° C.): stable as lysine salts
SMILES: CC(=O)NC(CSC(=O)C(C)c1ccc(CC(C)C)cc1)C(=O)O (stereo not drawn) [Dexibuprofen-NAC]

stability under acidic conditions, lysine salt ([1]; 3 h): stable after 3 hours
stability, free acid in the absence of lysine ([1]; 3 days): lost stability during a 3-day timecourse
SMILES: CC(=O)N[C@@H](CSC(=O)c1ccccc1O)C(=O)O [Example 1, (R)-2-acetamido-3-(2-hydroxybenzoylthio)propanoic acid]
detectable conjugate under basic conditions ([1]; basic pH (9), PBS, room temperature, 3 hour incubation, free acid and lysine salt tested): only the lysine salt showed any (sparing) détectable conjugate
cleavage of conjugate, rat versus human microsomes [2]: Rat microsomes were found to be more potent in cleaving
glycemia ([3]; 0.38 mmol/kg or equivalent amount of combination, 4-day timecourse, male cd-1 mice (FIG. 17)): statistically-significant reduction
pancreatic beta-cell function (as assessed by plasma insulin levels) ([3]; alloxan-treated mice (FIG. 17)): statistically-significant potection of pancreatic beta-cell function
plasma insulin levels ([3]; i.p., listed as GMC-3a): preservation of insulin levels
plasma insulin levels ([3]; i.p., listed as salicylate-NAC): an increase in plasma insulin levels
effect of alloxan on β-cells ([3]; lysine salts (FIG. 6)): reduce the effect of alloxan on β-cells
glycemia ([3]; lysine salts, i.p., 4-day timecourse (FIG. 6)): statistically-significant reductions in glycemia
free fatty acid levels ([4]; 0.38 mmol/kg/day or equivalent amount of combination (FIG. 18)): lowered significantly only by the conjugate
free fatty acid levels [4, 11]: significantly improved
plasma triglyceride levels [4, 11]: significantly improved
free fatty acid levels ([4]; 0.75 mmol/kg/day or equivalent amount of combination (FIG. 18)): statistically-significant reductions
triglycerides ([4]; chronic oral, diflunisal-NAC 0.5, salicylate-NAC 1.5 mmol/kg/day as lysine salt (FIG. 11)): significant réductions in triglycerides
plasma glucose in glucose tolerance test [5]: reductions in plasma glucose

stability of lysine salt in PBS, 3 hours [1]: stable
stability of lysine salt in water/methanol mixture [1]: did not show comparable stability
stability of lysine salt in PBS, 24 hours ([1]; 24 h, pH 7): not after 24 hours
stability of free acid in water/methanol mixture ([1]; pH 7): stable over 3 and 24 hours
epididimal adipose tissue weight ([4]; oral 0.5 mmol/kg, treated group (vehicle 1.7±0.09)): 1.8 ± 0.07 g
macroscopic lesions of the gastro intestinal system ([4]; oral treatment of db/db mice): did not induce any macroscopic lesions
pancreatic weight [7]: without affecting pancreatic weight
final plasma concentrations of diflunisal and NAC ([8]; oral 20 mg/kg conjugate versus separate components): the final concentrations were the same
SMILES: CC(=O)N[C@@H](CSC(=O)c1cc(-c2ccc(F)cc2F)ccc1O)C(=O)O [Example 13]
cleavage of conjugate, rat versus human microsomes [2]: Rat microsomes were found to be more potent in cleaving
percentage of anti-inflammatory component released by rat liver microsomes ([2]; diflunisal-NAC compared with salicylate-NAC): a higher percentage of diflunisal that salicyalte was released
percentage of anti-inflammatory component released by human liver microsomes [6]: a higher percentage of diflunisal that salicyalte was released
body weight of treated db/db mice ([4]; oral 0.5 mmol/kg (FIG. 20)): did not affect the weight
plasma concentration profile of diflunisal and NAC ([8]; oral 20 mg/kg conjugate versus equivalent diflunisal and NAC given separately): a more gradual increase in plasma concentrations
body weight and epididimal adipose tissue weight [9]: did not affect these two parameters

SMILES: O=C(Oc1ccccc1C(=O)O)c1ccccc1O [salsalate]
enhancement of side effects such as tinnitus [10]: 66%
